Molecules are shown by their SMILES.

This assay concerns single-round infectious reporter virus (HIV-1 envelope). Description: HIV-1 single-round infectious luciferase reporter virus infection of HeLa CD4 cells. The note with it: Human immunodeficiency virus 1, HeLa, 72 h. The class given is cell-based. The protocol:
Cells: (virus production) human embryonic kidney cell line, 293, was propagated in Dulbecco's Modified Eagle Medium (Invitrogen, Carlsbad, Calif.) containing 10% fetal Bovine serum (FBS, Sigma, St. Louis, Mo.); (virus infection) human epithelial cell line, HeLa, expressing the HIV-1 receptor CD4 was propagated in Dulbecco's Modified Eagle Medium (Invitrogen, Carlsbad, Calif.) containing 10% fetal Bovine serum (FBS, Sigma, St. Louis, Mo.) and supplemented with 0.2 mg/mL Geneticin (Invitrogen, Carlsbad, Calif.).
Virus: single-round infectious reporter virus was produced by co-transfecting human embryonic kidney 293 cells with an HIV-1 envelope DNA expression vector and a proviral cDNA containing an envelope deletion mutation and the luciferase reporter gene inserted in place of HIV-1 nef sequences. Transfections were performed using lipofectAMINE PLUS reagent as described by the manufacturer (Invitrogen, Carlsbad, Calif.).
Experiment: HeLa CD4 cells were plated in 96 well plates at a cell density of 1×10^4 cells per well in 100 μl Dulbecco's Modified Eagle Medium containing 10 % fetal Bovine serum and incubated overnight. Compound was added in a 2 μl dimethylsulfoxide solution, so that the final assay concentration would be ≦10 μM. Single-round infectious reporter virus (100 μL) in Dulbecco's Modified Eagle Medium was then added to the plated cells and compound at an approximate multiplicity of infection (MOI) of 0.01, resulting in a final volume of 200 μl per well. Virally-infected cells were incubated at 37 degrees Celsius, in a CO2 incubator, and harvested 72 h after infection. Viral infection was monitored by measuring luciferase expression from viral DNA in the infected cells using a luciferase reporter gene assay kit, as described by the manufacturer (Roche Molecular Biochemicals, Indianapolis, Ind.). Infected cell supernatants were removed and 50 μl of lysis buffer was added per well. After 15 minutes, 50 μl of freshly-reconstituted luciferase assay reagent was added per well. Luciferase activity was then quantified by measuring luminescence using a Wallac microbeta luminescence reader.
The percent inhibition for each compound was calculated by quantifying the level of luciferase expression in cells infected in the presence of each compound as a percentage of that observed for cells infected in the absence of compound and subtracting such a determined value from 100. The effective concentration for fifty percent inhibition (EC50) was calculated with Microsoft Excel Xlfit curve fitting software. For each compound, curves were generated from percent inhibition calculated at 10 different concentrations by using a four paramenter logistic model (model 205).
For orientation: A reporter such as luciferase makes a cellular process visible.
Regarding `C[C@@H]1CN(C(=O)c2ccccc2)CCN1C(=O)C(=O)c1nc2ccccc2s1` [Example 2, (R)-N-(benzoyl)-3-methyl-N′-[(benzothiazol-2-yl)-2-oxoacetyl]-piperazine], the half-maximal effective concentration (EC50) was less than 1 µM. Under `C[C@@H]1CN(C(=O)c2ccccc2)CCN1C(=O)C(=O)c1ccc2scnc2c1` [Example 4, (R)-N-(benzoyl)-3-methyl-N′-[(benzothiazol-5-yl)-2-oxoacetyl]piperazine] stands less than 1 µM; under `C[C@@H]1CN(C(=O)c2ccccc2)CCN1C(=O)C(=O)c1ccc2sc(N)nc2c1` [Example 8], less than 1 µM; under `C[C@@H]1CN(C(=O)c2ccccc2)CCN1C(=O)C(=O)c1ccc2sc(-n3cccc3)nc2c1` [Example 7], less than 1 µM. Under `C[C@@H]1CN(C(=O)c2ccccc2)CCN1C(=O)C(C#N)c1nc2ccccc2s1` (stereo partly drawn) [Example 1, (R)-N-(benzoyl)-3-methyl-N′-[(benzothiazol-2-yl)-2-cyanoacetyl]-piperazine] stands less than 1 µM.

The term EC50 denotes the concentration that produces a half-maximal response.

These data come from US7087610B2, “Benzothiazole antiviral agents” (priority 2004, dated 2006).
